Series [1] concerns SW1990 pancreatic tumoral cell line. The series can be described thus: Combined effect of AV25CDC 5/3 and gemcitabine, MTT cell viability. The class given is cell-based, human. The following applies: alone or 24 h after virus at MOI 0.1, MTT six days later. As for the experimental part: FIG. 8. In vitro synergic effect of AV25CDC 5/3 and gemcitabine in pancreatic tumoral cell line SW1990. Cells were infected with AV25CDC 5/3, at a MOI of 0.1 and 24 hours later gemcitabine was added at concentrations of 0.01 uM and 0.1 uM. Six days later, cell viability was measured using MTT assay.
Pancreatic tumoral cell lines (SW1990) were plated and infected with AV25CDC 5/3, at a MOI of 0.1 and 24 hours later, gemcitabine was added in concentrations of 0.01 uM and 0.1 uM. Six days later, cell viability was measured using MTT assay. There was no decrease on viability if only AV25CDC 5/3 is used at a MOI of 0.1, as well as no decrease was found adding gemcitabine at 0.01 uM. Nevertheless, the combination of both produced a decrease in cell viability of 20%. Using a higher concentration of gemcitabine, of 0.1 uM, on its own produced a decrease in viability of 20%, but combined with AV25CDC 5/3 at a MOI of 0.1, the viability decrease of 40%, considering the control (FIG. 8).

The nature of series [2]: Biochemical profile and Ca 19.9 tumoral marker of treated animals at day 40. The class given is in vivo, athymic mice N:NIH(S)-nu. Here is the method: Also, to evaluate efficacy of AV25CDC 5/3, on orthotopic tumors caused by SW1990 cells, E4 expression was evaluated at day 40, where an average of […] viral particles were found in the tumor indicating an active replication. On the other hand, biochemical parameters were evaluated at day 40, determining amylase, total and direct bilirubin, alkaline phosphatase (ALP) and aspartate aminotransferase (AST).
Tumoral marker levels Ca 19.9 were also determined.

Take `Nc1ccn([C@@H]2O[C@H](CO)[C@@H](O)C2(F)F)c(=O)n1` [gemcitabine]: the cytotoxicity at 0.1 µM in series [1] (Homo sapiens, gemcitabine 0.1 uM, vs control, read-out: decrease in cell viability) stood at 20%. Further, in series [1] (gemcitabine 0.01 uM), the “decrease in cell viability” value was “no decrease”. In addition, in series [2] (average ± SD, day 40), the ALP stood at 119.3 ± 25 U/L, the Amylase turned out to be 1151 ± 386 U/L, the Direct bilirubin worked out at 0.14 ± 0.02 mg/dL and the “GOT (AST)” value came out at 280 ± 64 U/L. Also, in series [2] (average ± SD, day 40), the “GPT (ALT)” value is reported as 47 ± 17 U/L and the “Total Bilirubin” value is 0.78 ± 0.05 mg/dL. The “Ca 19.9” value in series [2] (tumoral marker, individual samples, day 40 after injection of virus) came out at 27940 U/ml.

Values taken from patent publication US9056133B2, “Pharmaceutical kit and method for treating cancer” (priority 2012, dated 2015).
